Test results: PubChem BioAssay AID602191 (Broad Institute, 2012)
Active and inactive are the calls of the source.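 How the source made its calls: active means fitted curve reaches 40% activation at a concentration no higher than the top valid tested dose; inconclusive means flat fit between 30% and 70% activation, or poor fit; inactive means uptake decrease, flat fit within 30% of zero, the rest.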

molecular target: Scavenger receptor class B member 1 (Mus musculus) (UniProt Q61009); experiment: activators of SR-BI-mediated HDL uptake, dose response, cell-based, ldlA[mSR-BI] CHO, DiI fluorescence, cherry-pick (AID 602191); settings: ldlA[mSR-BI] CHO cells, 3 h;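 further: cell fluorescence from internalized DiI-labeled HDL after washing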;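 on AC40: potency of activators raising HDL uptake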;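 on activation (HDL uptake increase): 0% = median of DMSO wells and 100% = twice the DMSO signal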
Sequence (Q61009 whole entry, looked up): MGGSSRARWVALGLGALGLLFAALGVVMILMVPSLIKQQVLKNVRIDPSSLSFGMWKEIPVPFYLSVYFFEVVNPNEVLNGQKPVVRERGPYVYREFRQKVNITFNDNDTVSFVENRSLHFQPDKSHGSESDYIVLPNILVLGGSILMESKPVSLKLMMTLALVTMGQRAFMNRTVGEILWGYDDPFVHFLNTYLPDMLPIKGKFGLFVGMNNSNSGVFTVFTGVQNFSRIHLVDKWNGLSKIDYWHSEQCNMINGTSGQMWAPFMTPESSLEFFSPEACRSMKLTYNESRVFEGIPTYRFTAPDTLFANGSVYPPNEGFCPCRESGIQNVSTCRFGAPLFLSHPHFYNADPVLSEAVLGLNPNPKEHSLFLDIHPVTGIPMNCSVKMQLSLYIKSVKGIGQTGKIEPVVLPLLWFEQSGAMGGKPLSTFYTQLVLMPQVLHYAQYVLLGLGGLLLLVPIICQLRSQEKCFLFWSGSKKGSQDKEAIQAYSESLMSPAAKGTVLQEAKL

SMILES	AC40
Cc1c(CCOC(=O)C23CC4(C)CC(C)(CC(C)(C4)C2)C3)sc[n+]1CC(=O)c1ccccc1	> 35 µM (inactive)
CCOC(=O)c1ccc(NC(=O)c2nc[nH]c2C(=O)NCCCCNC(=O)c2[nH]cnc2C(=O)Nc2ccc(C(=O)OCC)cc2)cc1	29.8 µM

same assay, conditions: ldlA[mSR-BI] CHO cells, 3 h, at 35 µM (top of the series)

SMILES	activation (HDL uptake increase)
CCc1cc(C(=O)Nc2cc(S(=O)(=O)N3CCOCC3)ccc2N2CCN(CC)CC2)sc1C	-0.114% (inactive)
COc1ccc(NC(=O)C(Sc2nnc3ccccn23)c2ccccc2)cc1Cl (stereo not drawn)	-16.3% (inactive)
Cc1ccc(C2/C(=C(\O)c3ccc4c(c3)OCCO4)C(=O)C(=O)N2Cc2cccnc2)cc1 (stereo not drawn)	-7.31% (inactive)
CCS(=O)(=O)c1nc(S(=O)(=O)c2ccc(C)cc2)c(N2CCC(C)CC2)s1	-8.15% (inactive)
COc1ccc(C(=O)N2CCNC(=O)C2)cc1S(=O)(=O)Nc1ccc(Br)cc1	-3.81% (inactive)
Cc1nc(C2CCCCC2)c(-c2ccccc2)c(N2CCOC2=O)c1C	1.15% (inactive)
O=C1CCCCN1CCC(=O)N1CCCC(Nc2ccccc2)C1 (stereo not drawn)	4.76% (inactive)
Cc1ccc(-c2csc(=Nc3cccnc3)n2CCCN2CCCC2=O)cc1C	-13.4% (inactive)
COCCCNC(=O)C1CCC(CNS(=O)(=O)c2ccc3c(c2)N(C(C)=O)CCO3)CC1 (stereo not drawn)	7.18% (inactive)
COc1ccccc1-c1nc(SCC(=O)Nc2ccccc2F)n[nH]1	-24.3% (inactive)
Cc1ccc(-n2ncc3c(=O)n(CC(=O)N4CCN(c5ccccc5F)CC4)cnc32)cc1C	-20.1% (inactive)
COc1ccc(N2C(=O)CCC(C(=O)N3CCOCC3)C2c2ccc(F)cc2)cc1 (stereo not drawn)	5.04% (inactive)
CCN(CC)C(=O)c1ncn(Cc2ccccc2)c1C(=O)N(CC)CC	-3.26% (inactive)
COc1ccc2cnnc(SCC(=O)Nc3ccc(C(C)=O)cc3)c2c1OC	-18.2% (inactive)
O=C(O)C1CCN(Cc2cnn(-c3ccccc3)c2-n2cccc2)CC1	6.93% (inactive)
CCCn1c(N)c(N(CCOC)C(=O)c2ccc(S(=O)(=O)N3CCOCC3)cc2)c(=O)[nH]c1=O	-4.96% (inactive)

SMILES	activation (HDL uptake increase)
O=C(COC(=O)COc1ccccc1)NCCC1=CCCCC1	2.72% (inactive)
O=C(OCCc1cc2ccccc2c(=O)o1)c1ccco1	-0.117% (inactive)
COc1ccc(OC)c(S(=O)(=O)N2CCN(C(=O)CCc3ccccc3)CC2)c1	-1.31% (inactive)
CN(c1cccc(NC(=O)CN(c2ccc(C34CC5CC(CC(C5)C3)C4)cc2)S(C)(=O)=O)c1)S(C)(=O)=O	17.6% (inactive)
O=C(CCN1C(=O)[C@@H]2Cc3ccccc3CN2C1=O)N[C@@H](C(=O)O)c1ccccc1	-2.01% (inactive)
Cc1c(NC(=O)c2ccc(Br)o2)cccc1C(=O)O	5.98% (inactive)
CC(OC(=O)c1ccc(S(=O)(=O)N2CCCCC2)cc1)C(=O)Nc1ccc(C(N)=O)cc1 (stereo not drawn)	0.807% (inactive)
COc1ccc(N2CC(NS(=O)(=O)c3cccnc3)CC2=O)cc1 (stereo not drawn)	-6.57% (inactive)
CC(C)c1ccc(OCC(=O)NCCO)cc1	1.48% (inactive)
O=C(NC(=S)N(Cc1ccccc1)Cc1ccccc1)c1ccccc1F	-11.7% (inactive)
CC(C)(C)SCCNC(=O)c1ccc(Cl)c([N+](=O)[O-])c1	-10.4% (inactive)
COc1ccc(N2CC(NC(=O)N3CCN(C(=O)c4ccco4)CC3)CC2=O)cc1OC (stereo not drawn)	11% (inactive)
Cc1ccc(S(=O)(=O)NC(=O)Nc2nnc(C3CC3)s2)cc1	9.12% (inactive)
O=C1C2CCCN2C(=O)N1CCCCN1CCN(c2ccccc2)CC1 (stereo not drawn)	10.3% (inactive)
NCCCC[C@H]1CNC(=O)C(=O)N1CCc1cc(C(F)(F)F)cc(C(F)(F)F)c1	6.34% (inactive)
